Key:
Experiment in all cases: In vitro antifungal activity, microbroth dilution MIC
Format in all cases: cell-based
[1] = system: Trichophyton mentagrophytes A. 9129; conditions: T. mentagrophytes A. 9129, RPMI-1640, 35° C., 4 to 48 hours
Description: (§1) In vitro antifungal activities of the inventive antifungal compounds were evaluated using the test strains shown in Table VIII by the following microbroth dilution method which is a modified version of the procedure recommended by National Committee for Clinical Laboratory Standards(see National Committee for Clinical Laboratory Standards, 1992, Reference methods for broth dilution antifungal susceptibility testing of yeasts, Proposed standard M27-P, National Committee for clinical laboratory standards, Villanova, Pa; and National Committee for Clinical Laboratory Standards, 1995, Reference methods for broth dilution antifungal susceptibility testing of yeasts. Tentative standard M27-T, National Committee for clinical laboratory standards, Villanova, Pa).
(§2) Sabourad Dextrose Agar(Difco) was used as a culture medium, and RPMI-1640 broth(Sigma. Co. w/L-glutamine, wo/NaHCO3)(0.165 M MOPS, pH 7.0), as a dilution medium.
(§3) Each of the test strains were subcultured in Sabourad Dextrose Agar medium twice and a stain sample was taken from prominent colonies and suspended in sterile physiological saline solution in a cap tube. The turbidity of the suspension was adjusted to that of the Mcfarland 0.5 standard sample(approximately 10^6 CFU/ml). Then the suspension was diluted 500-fold with sterile RPMI-1640 liquid medium to 2×10^3 CFU/ml.
(§4) Each of the test compounds(the compounds obtained in Examples 1 to 150 and comparative compounds, i.e., fluconazole(FCZ) and itraconazole (ICZ)), was dissolved in DMSO to give a stock solution having a concentration of 4000 μg/ml and the stock solution was successively diluted to obtain test solutions having test compound concentrations of 200, 100, 50, 25, 12.5, 6.25, 3.13, 1.56, 0.78, 0.39, 0.20 and 0.10 μg/ml, respectively.
(§5) 0.1 ml portion of the test solutions were added to the wells of a sterile 96 well plate. Then, 0.1 ml portion of each of the test strain solutions were added successively to the wells and the plate was incubated at 35° C. for 4 to 48 hours.
(§6) Minimal inhibitory concentration(MIC) of each compound was defined as the concentration of the test compound where no growth of the strain could be observed.

[2] = system: Candida albicans A. 10231; conditions: C. albicans A. 10231, RPMI-1640, 35° C., 4 to 48 hours
Description: as §1, §2, §3, §4, §5, §6

[3] = system: Aspergillus niger A. 16404; conditions: A. niger A. 16404, RPMI-1640, 35° C., 4 to 48 hours
Description: as §1, §2, §3, §4, §5, §6

[4] = system: Aspergillus furnigatus B. 19119; conditions: A furnigatus B. 19119, RPMI-1640, 35° C., 4 to 48 hours
Description: as §1, §2, §3, §4, §5, §6

[5] = system: Candida parapsitosis A. 7330; conditions: C. parapsitosis A. 7330, RPMI-1640, 35° C., 4 to 48 hours
Description: as §1, §2, §3, §4, §5, §6

[6] = system: Cryptococcus neoformans IFM. 40092; conditions: Cry. neoformans IFM. 40092, RPMI-1640, 35° C., 4 to 48 hours
Description: as §1, §2, §3, §4, §5, §6

Candida albicans C1-2 = conditions: C. albicans C1-2, RPMI-1640, 35° C., 4 to 48 hours
Description: as §1, §2, §3, §4, §5, §6

[7] = system: Cryptococcus neoformans B. 42419; conditions: Cry. neoformans B. 42419, RPMI-1640, 35° C., 4 to 48 hours
Description: as §1, §2, §3, §4, §5, §6

[8] = system: Candida pseudotropicalis K. 11658; conditions: C. pseudotropicalis K. 11658, RPMI-1640, 35° C., 4 to 48 hours
Description: as §1, §2, §3, §4, §5, §6

[9] = system: Cryptococcus neoformans A. 34144; conditions: Cry. neoformans A. 34144, RPMI-1640, 35° C., 4 to 48 hours
Description: as §1, §2, §3, §4, §5, §6

Candida krusei K. 11655 = conditions: C. krusei K. 11655, RPMI-1640, 35° C., 4 to 48 hours
Description: as §1, §2, §3, §4, §5, §6

[10] = system: Candida tropicalis A. 13803; conditions: C. tropicalis A. 13803, RPMI-1640, 35° C., 4 to 48 hours
Description: as §1, §2, §3, §4, §5, §6

[11] = system: Trichophyton mentagrophytes B. 32663; conditions: T. mentagrophytes B. 32663, RPMI-1640, 35° C., 4 to 48 hours
Description: as §1, §2, §3, §4, §5, §6

[12] = system: Torulopsis glabrata B. 16205; conditions: T. glabrata B. 16205, RPMI-1640, 35° C., 4 to 48 hours
Description: as §1, §2, §3, §4, §5, §6

[13] = system: Candida albicans IFO. 1385; conditions: C. albicans IFO. 1385, RPMI-1640, 35° C., 4 to 48 hours
Description: as §1, §2, §3, §4, §5, §6

| Minimal inhibitory concentration (MIC) [1] | Minimal inhibitory concentration (MIC) [2] | Minimal inhibitory concentration (MIC) [3] | Minimal inhibitory concentration (MIC) [4] | Minimal inhibitory concentration (MIC) [5] | Minimal inhibitory concentration (MIC) [6] | Minimal inhibitory concentration (MIC) (Candida albicans C1-2) | Minimal inhibitory concentration (MIC) [7] | Minimal inhibitory concentration (MIC) [8] | Minimal inhibitory concentration (MIC) [9] | Minimal inhibitory concentration (MIC) (Candida krusei K. 11655) | Minimal inhibitory concentration (MIC) [10] | Minimal inhibitory concentration (MIC) [11] | Minimal inhibitory concentration (MIC) [12] | Minimal inhibitory concentration (MIC) [13] | Structure (SMILES) |
| --- | --- | --- | --- | --- | --- | --- | --- | --- | --- | --- | --- | --- | --- | --- | --- |
| 3.13 mg/L | 12.5 mg/L | 25.0 mg/L | 6.25 mg/L | 12.5 mg/L | 0.20 mg/L | 12.5 mg/L | 1.56 mg/L | 12.5 mg/L | 1.56 mg/L | 25.0 mg/L | 25.0 mg/L | 0.78 mg/L | 6.25 mg/L | 0.39 mg/L | Cc1cc(C=C(F)OCC2COC(Cn3ccnc3)(c3ccc(F)cc3F)O2)ccc1Cl (mixture of isomers) [Ex. 50] |
| 1.56 mg/L | 12.5 mg/L | 12.5 mg/L | 3.13 mg/L | >100 mg/L | 0.20 mg/L | 12.5 mg/L | 1.56 mg/L | 25.0 mg/L | 1.56 mg/L | 50.0 mg/L | 25.0 mg/L | 0.78 mg/L | 6.25 mg/L | 0.39 mg/L | FC(=Cc1cccc2ccccc12)OCC1COC(Cn2ccnc2)(c2ccc(F)cc2F)O1 (mixture of isomers) [Ex. 51] |
| 1.56 mg/L | 12.5 mg/L | 6.25 mg/L | 1.56 mg/L | >100 mg/L | ≦0.10 μg/ml | 12.5 mg/L | 0.78 mg/L | 50.0 mg/L | 0.78 mg/L | 100 mg/L | 50.0 mg/L | 0.78 mg/L | 3.13 mg/L | 0.39 mg/L | FC(OCC1COC(Cn2ccnc2)(c2ccc(F)cc2F)O1)=C(c1ccccc1)C(F)(F)F (mixture of isomers) [Ex. 52] |
| 3.13 mg/L | 12.5 mg/L | 25.0 mg/L | 3.13 mg/L | >100 mg/L | ≦10.10 μg/ml | 25.0 mg/L | 0.78 mg/L | >100 mg/L | 1.56 mg/L | >100 mg/L | 100 mg/L | 1.56 mg/L | 6.25 mg/L | 0.78 mg/L | Cc1cccc(C(=C(F)OCC2COC(Cn3ccnc3)(c3ccc(F)cc3F)O2)C(F)(F)F)c1 (mixture of isomers) [Ex. 53] |
| 3.13 mg/L | 12.5 mg/L | 25.0 mg/L | 3.13 mg/L | >100 mg/L | ≦0.10 μg/ml | 25.0 mg/L | 0.78 mg/L | 100 mg/L | 1.56 mg/L | >100 mg/L | 100 mg/L | 1.56 mg/L | 6.25 mg/L | 0.78 mg/L | Cc1ccc(C(=C(F)OCC2COC(Cn3ccnc3)(c3ccc(F)cc3F)O2)C(F)(F)F)cc1 (mixture of isomers) [Ex. 54] |
| 6.25 mg/L | 12.5 mg/L | >100 mg/L | 100 mg/L | >100 mg/L | ≦0.10 μg/ml | 12.5 mg/L | 0.78 mg/L | 50.0 mg/L | 0.78 mg/L | >100 mg/L | 25.0 mg/L | 3.13 mg/L | 6.25 mg/L | 0.78 mg/L | CCc1ccc(C(=C(F)OCC2COC(Cn3ccnc3)(c3ccc(F)cc3F)O2)C(F)(F)F)cc1 (mixture of isomers) [Ex. 55] |
| 6.25 mg/L | 12.5 mg/L | >100 mg/L | 50.0 mg/L | >100 mg/L | 0.20 mg/L | 12.5 mg/L | 0.78 mg/L | >100 mg/L | 1.56 mg/L | >100 mg/L | 100 mg/L | 3.13 mg/L | 6.25 mg/L | 0.78 mg/L | Cc1ccc(C(=C(F)OCC2COC(Cn3ccnc3)(c3ccc(F)cc3F)O2)C(F)(F)F)cc1C (mixture of isomers) [Ex. 56] |
| 6.25 mg/L | 12.5 mg/L | >100 mg/L | 50.0 mg/L | >100 mg/L | 0.20 mg/L | 12.5 mg/L | 0.78 mg/L | >100 mg/L | 1.56 mg/L | >100 mg/L | 100 mg/L | 3.13 mg/L | 6.25 mg/L | 0.78 mg/L | Cc1cc(C)cc(C(=C(F)OCC2COC(Cn3ccnc3)(c3ccc(F)cc3F)O2)C(F)(F)F)c1 (mixture of isomers) [Ex. 57] |

— patent publication US6376497B1, “Antifungal azole derivatives having a fluorinated vinyl group and process for preparing same” (Korea Research Institute of Chemical Technology, priority 1999, dated 2002)
